Laboratory results reported in patent US9247744B2, “Ternary pesticidal mixtures” (BASF SE, priority 2006, dated 2016).

How the values were obtained:
Type in all cases: in vivo
[1] = tested on: boll weevil (Anthonomus grandis); experiment: control of boll weevil, insect diet with eggs, 24-well microtiter plates; conditions: sprayed on insect diet, egg and larval mortality after 5 days
Procedure: (§1) The analysis of synergism or antagonism between the mixtures or compositions was determined using Colby's equation.
For evaluating control of boll weevil (Anthonomus grandis) the test unit consisted of 24-well-microtiter plates containing an insect diet and 20-30 A. grandis eggs.
The compounds or mixtures were formulated using a solution containing 75% water and 25% DMSO. Different concentrations of formulated compounds or mixtures were sprayed onto the insect diet at 20 μl, using a custom built micro atomizer, at two replications.
(§2) For experimental mixtures in these tests identical volumes of both mixing partners at the desired concentrations respectively, were mixed together.
After application, microtiter plates were incubated at 23±1° C., 50±5% RH for 5 days. Egg and larval mortality was then visually assessed.
In this test the compound 1-2, and prochloraz, pyraclostrobin, N-[2-(1,1,2,3,3,3-hexafluoropropoxy)-phenyl]-3-difluoromethyl-1-methyl-1H-pyrazole-4-carboxamide (compound 3.1), and N-(3′,4′,5′-trifluorobiphenyl-2-yl)-1-methyl-3-difluoromethyl-1H-pyrazole-4-carboxamide (compound 3.2), resp., were used.

[2] = tested on: vetch aphid (Megoura viciae); experiment: control of vetch aphid on broad bean leaf disks, 24-well microtiter plates; conditions: sprayed on leaf disks, mortality and fecundity after 5 days
Procedure: as §1
For evaluating control of vetch aphid (Megoura viciae) through contact or systemic means the test unit consisted of 24-well-microtiter plates containing broad bean leaf disks.
The compounds or mixtures were formulated using a solution containing 75% water and 25% DMSO. Different concentrations of formulated compounds or mixtures were sprayed onto the leaf disks at 2.5 μl, using a custom built micro atomizer, at two replications.
as §2
After application, the leaf disks were air-dried and 5-8 adult aphids placed on the leaf disks inside the microtiter plate wells. The aphids were then allowed to suck on the treated leaf disks and incubated at 23±1° C., 50±5% RH for 5 days. Aphid mortality and fecundity was then visually assessed.
In this test the compound 1-2, and N-(3′,4′-dichloro-5-fluorobiphenyl-2-yl)-3-difluoromethyl-1-methylpyrazole-4-carboxamide (compound 2.1) and 5-chloro-7-(4-methyl-piperidin-1-yl)-6-(2,4,6-trifluorophenyl)-[1,2,4]triazolo[1,5-a]pyrimidine (compound 2.2) were used.

[3] = tested on: tobacco budworm (Heliothis virescens); experiment: control of tobacco budworm, insect diet with eggs, 96-well microtiter plates; conditions: sprayed on insect diet, egg and larval mortality after 5 days
Procedure: as §1
For evaluating control of tobacco budworm (Heliothis virescens) the test unit consisted of 96-well-microtiter plates containing an insect diet and 15-25 H. virescens eggs. The compounds or mixtures were formulated using a solution containing 75% water and 25% DMSO. Different concentrations of formulated compounds or mixtures were sprayed onto the insect diet at 10 μl, using a custom built micro atomizer, at two replications.
as §2
After application, microtiter plates were incubated at 28±1° C., 80±5% RH for 5 days. Egg and larval mortality was then visually assessed.
In this test the compound I-2, and prochloraz, and pyraclostrobin, resp., were used.

[4] = tested on: green peach aphid (Myzus persicae); experiment: control of green peach aphid through systemic means, artificial diet under membrane; conditions: pipetted into aphid diet, mortality and fecundity after 3 days
Procedure: as §1
For evaluating control of green peach aphid (Myzus persicae) through systemic means the test unit consisted of 96-well-microtiter plates containing liquid artificial diet under an artificial membrane.
The compounds or mixtures were formulated using a solution containing 75% water and 25% DMSO. Different concentrations of formulated compounds or mixtures were pipetted into the aphid diet, using a custom built pipetter, at two replications.
as §2
After application, 5-8 adult aphids were placed on the artificial membrane inside the microtiter plate wells. The aphids were then allowed to suck on the treated aphid diet and incubated at 23±1° C., 50±5% RH for 3 days. Aphid mortality and fecundity was then visually assessed.
In this test the compound 1-2, and orysastrobin, and 5-chloro-7-(4-methylpiperidin-1-yl)-6-(2,4,6-trifluorophenyl)-[1,2,4]triazolo[1,5-a]pyrimidine (compound 2.2), and N-[2-(1,1,2,3,3,3-hexafluoropropoxy)-phenyl]-3-difluoromethyl-1-methyl-1H-pyrazole-4-carboxamide (compound 3.1), were used.

For Cn1cc(C(=O)Nc2ccccc2-c2cc(F)c(F)c(F)c2)c(C(F)F)n1 [compound 3.2, N-(3′,4′,5′-trifluorobiphenyl-2-yl)-1-methyl-3-difluoromethyl-1H-pyrazole-4-carboxamide], the “Average Control %” value ([1]; 200 ppm) was 0%.
CNC(=O)c1cc(C#N)cc(C)c1NC(=O)c1cc(Br)nn1-c1ncccc1Cl [I-2] was tested, and the “Average Control %” value ([2]; 0.5 ppm) was 0%, the “Average Control %” value ([2]; 2.5 ppm) was 0% and the “Average Control %” value ([1]; 0.5 ppm) was 0%. The “Average Control %” value ([3]; 0.5 ppm) was 0%, the “Average Control %” value ([3]; 2.5 ppm) was 37.5% and the “Average Control %” value ([4]; 0.5 ppm) was 0%.
For CNC(=O)/C(=N/OC)c1ccccc1CO/N=C(C)/C(=N/OC)C(/C)=N/OC [orysastrobin, (2E)-2-(methoxyimino)-2-{2-[(3E,5E,6E)-5-(methoxyimino)-4,6-dimethyl-2,8-dioxa-3,7-diazanona-3,6-dien-1-yl]phenyl}-N-methylacetamide], the “Average Control %” value ([4]; 40 ppm) was 0%.
For COC(=O)N(OC)c1ccccc1COc1ccn(-c2ccc(Cl)cc2)n1 [pyraclostrobin, methyl N-{2-[1-(4-chlorophenyl)-1/pyrazol-3-yloxymethyl]phenyl}(N-methoxy)carbamate], the “Average Control %” value ([1]; 40 ppm) was 0%, the “Average Control %” value ([3]; 200 ppm) was 0% and the “Average Control %” value ([4]; 8 ppm) was 0%.
In the case of Cn1cc(C(=O)Nc2ccc(F)cc2-c2ccc(Cl)c(Cl)c2)c(C(F)F)n1 [compound 2.1, N-(3′,4′-dichloro-5-fluorobiphenyl-2-yl)-3-difluoromethyl-1-methylpyrazole-4-carboxamide], the “Average Control %” value ([2]; 1000 ppm) is reported as 0%.
